The values below are quoted from earlier work in patent US20220395547A1, “LIPOSOMAL FORMULATIONS FOR DELIVERY OF CANNABINOIDS AND METHODS OF MAKING THEREOF” (Vella Bioscience, Inc., priority 2019, published 2022).

Molecules are shown by their SMILES. Some results are limits rather than exact numbers.

The subject of the data set is microorganisms. The conditions noted are these: known from the art.

As to `CC(O)CO` (stereo not shown) [propylene glycol], the “Concentration at which antimicrobial activity is present” value is at least 20%.
